In article PMC8920097, “Prediction of hERG inhibition of drug discovery compounds using biomimetic HPLC measurements” (ADMET & DMPK, 2021):
Like-named read-outs stand apart in the source and are kept apart here.

What was measured:
[1] = parameters: method as in doi:10.5599/admet.5.1.373; conditions: calibration set; predetermined by isocratic measurements; cited from earlier work
[2] = parameters: method as in PMID 11472245; conditions: cited from earlier work
AGP = test: Literature % binding to AGP by equilibrium dialysis (calibration set); conditions: log k = log (%binding/(101-%binding)) from literature % binding
hERG channel = conditions: cited from earlier work
[3] = Phospholipid binding at pH 7.4 on IAM PC.DD2 HPLC column; assay type: physicochemical; parameters: key to CHI IAM: approximates acetonitrile concentration (%) in mobile phase at elution; conditions: for log k IAM: pH 7.4, derived from CHI IAM by equation 1; for CHI IAM: pH 7.4
How it was run: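 Gradient retention on IAM PC.DD2 column (100 x 4.6 mm) with 50 mM ammonium acetate pH 7.4, 1.5 mL/min, 6 min cycle. Retention calibrated against acetophenone homologues to give CHI IAM (approximate acetonitrile concentration at elution), converted to log k IAM by equation.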

[4] = molecular target: human serum albumin (HSA) (Homo sapiens, UniProt P02768); test: Protein binding on Chiralpak HSA HPLC column; conditions: pH 7.4, Chiralpak HSA
Procedure: The measurement of the biomimetic properties of the available drugs was conducted in our laboratories. Generic gradient HPLC methods were used to determine the chromatographic hydrophobicity Index (CHI) using mobile phases at three different pH values. The protein binding of the compounds was measured using immobilised human serum albumin (HSA), and alpha-1-acid-glycoprotein (AGP) stationary phases. The phospholipid-binding was measured using the immobilised artificial membrane (IAM) stationary phase. The aim was to establish relationships between the cardiotoxicity potential and the biomimetic binding properties of the drugs and to evaluate their predictive performance.

[5] = Charge character of the drugs at pH 7.4; assay type: physicochemical
[6] = test system: alpha-1-acid-glycoprotein (AGP); test: Protein binding on Chiralpak AGP HPLC column; conditions: pH 7.4, Chiralpak AGP
How it was run: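 Binding measured by gradient HPLC on immobilised HSA or AGP stationary phases.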

[7] = CHI lipophilicity by gradient reversed-phase HPLC (Gemini NX-C-18); conditions: for chromatographic logD: Gemini NX-C-18 reversed-phase HPLC column, pH 7.4; for chromatographic logP: reversed-phase HPLC, Gemini NX-C-18 column (50 x 3 mm, 5 µm)
How it was run: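 Calibrated gradient retention times came from a 50 x 3 mm, 5 μm C-18 column run with a 0–100% linear acetonitrile gradient. A standard compound set converted these times to CHI values.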

[8] = literature values, mean where several reported, molar

Chain of human serum albumin (HSA) (P02768 25-609): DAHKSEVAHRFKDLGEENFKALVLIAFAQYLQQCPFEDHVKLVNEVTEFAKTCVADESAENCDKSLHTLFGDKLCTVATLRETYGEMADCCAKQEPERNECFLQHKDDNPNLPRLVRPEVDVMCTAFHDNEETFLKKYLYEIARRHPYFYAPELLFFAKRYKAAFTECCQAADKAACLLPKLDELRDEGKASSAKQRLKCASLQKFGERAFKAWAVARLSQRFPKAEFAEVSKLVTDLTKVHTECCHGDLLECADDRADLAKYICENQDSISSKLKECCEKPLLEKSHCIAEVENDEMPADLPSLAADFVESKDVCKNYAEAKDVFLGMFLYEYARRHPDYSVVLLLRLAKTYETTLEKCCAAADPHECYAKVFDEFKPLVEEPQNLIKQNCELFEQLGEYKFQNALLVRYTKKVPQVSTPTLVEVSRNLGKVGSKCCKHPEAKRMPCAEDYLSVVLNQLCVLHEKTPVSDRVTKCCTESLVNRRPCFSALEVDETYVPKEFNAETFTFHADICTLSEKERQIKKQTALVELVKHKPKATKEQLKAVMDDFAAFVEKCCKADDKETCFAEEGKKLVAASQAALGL

| Structure (SMILES) | log k IAM [3] | log k HSA [4] | Charge [5] | log k AGP [6] | chromatographic logD [7] | chromatographic logP [7] | further results |
| --- | --- | --- | --- | --- | --- | --- | --- |
| CC(=O)Nc1ccccc1 [Acetanilide] |  |  |  |  |  |  | CHI IAM [1]: 11.5 |
| CC(=O)c1ccccc1 [Acetophenone] |  |  |  |  |  |  | CHI at pH 2.6 ([2]; calibration set): 64.1; CHI at pH 7.4 ([2]; calibration set): 65.1; CHI at pH 10.5 ([2]; calibration set): 64.1; CHI IAM [1]: 17.2 |
| c1ccc2[nH]cnc2c1 [Benzimidazole] |  |  |  |  |  |  | CHI at pH 2.6 ([2]; calibration set): 6.3; CHI at pH 7.4 ([2]; calibration set): 34.3; CHI at pH 10.5 ([2]; calibration set): 30.6 |
| CCCC(=O)c1ccccc1 [Butyrophenone] |  |  |  |  |  |  | CHI at pH 2.6 ([2]; calibration set): 87.3; CHI at pH 7.4 ([2]; calibration set): 87.5; CHI at pH 10.5 ([2]; calibration set): 87.3; CHI IAM [1]: 32.0 |
| COc1cc2c(c(OC)c1OC)-c1ccc(OC)c(=O)cc1[C@@H](NC(C)=O)CC2 [Colchicine] |  |  |  |  |  |  | CHI at pH 2.6 [2]: 43.9; CHI at pH 7.4 [2]: 45.0; CHI at pH 10.5 [2]: 43.9 |
| O=C(O)Cc1ccccc1Nc1c(Cl)cccc1Cl [Diclofenac] |  |  |  |  |  |  | log k AGP (AGP): 0.2 |
| CCCCCCC(=O)c1ccccc1 [Heptanophenone] |  |  |  |  |  |  | CHI IAM [1]: 45.7 |
| CCCCCC(=O)c1ccccc1 [Hexanophenone] |  |  |  |  |  |  | CHI IAM [1]: 41.8 |
| c1ccc2[nH]ccc2c1 [Indole] |  |  |  |  |  |  | CHI at pH 2.6 [2]: 72.1; CHI at pH 7.4 [2]: 71.5; CHI at pH 10.5 [2]: 72.1 |
| COC(=O)C1=C(C)NC(C)=C(C(=O)OC(C)C)C1c1cccc2nonc12 (centres unmarked) [Isradipine] | 2.21 | 1.19 | Neutral | 1.32 | 3.25 | 3.29 | hERG pIC50 (hERG channel; [8]): 5.71 |
| Nc1nnc(-c2cccc(Cl)c2Cl)c(N)n1 [Lamotrigine] | 1.49 | 0.16 | Weak Base | -0.33 | 0.86 | 0.81 | hERG pIC50 (hERG channel): 3.55; CHI IAM [3]: 23.25 |
| CCCCN1CCCC[C@H]1C(=O)Nc1c(C)cccc1C [Levobupivacaine] | 2.34 | 0.13 | Weak Base | 1.25 | 3.25 | 4.2 | hERG pIC50 (hERG channel; [8]): 5.48; CHI IAM [3]: 41.83 |
| COCCc1ccc(OCC(O)CNC(C)C)cc1 (centres unmarked) [Metoprolol] | 2.05 | -0.72 | Basic | -0.27 | 0.77 |  | hERG pIC50 (hERG channel; [8]): 3.84; CHI IAM [3]: 35.38 |
| CCCCCCCC(=O)c1ccccc1 [Octanophenone] |  |  |  |  |  |  | CHI IAM [1]: 49.4 |
| Cc1nccn1CC1CCc2c(c3ccccc3n2C)C1=O (centres unmarked) [Ondansetron] | 2.22 | 0.54 | Weak Base | 1.30 | 1.33 | 1.66 | hERG pIC50 (hERG channel; [8]): 5.73; CHI IAM [3]: 39.01 |
| CCCN1C[C@H](CSC)C[C@@H]2c3cccc4[nH]cc(c34)C[C@H]21 [Pergolide] | 2.85 | 0.73 | Basic | 1.04 | 2.47 | 3.81 | hERG pIC50 (hERG channel; [8]): 6.52 |
| c1ccc(-c2nn[nH]n2)cc1 [Phenyl tetrazole] |  |  |  |  |  |  | CHI at pH 2.6 ([2]; calibration set): 42.2; CHI at pH 7.4 ([2]; calibration set): 23.6; CHI at pH 10.5 ([2]; calibration set): 16.0 |
| Cn1c(=O)c2nc(-c3ccccc3)[nH]c2n(C)c1=O [Phenyl theophylline] |  |  |  |  |  |  | CHI at pH 2.6 ([2]; calibration set): 51.7; CHI at pH 7.4 ([2]; calibration set): 51.2; CHI at pH 10.5 ([2]; calibration set): 51.3 |
| O=C1NC(=O)C(c2ccccc2)(c2ccccc2)N1 [Phenytoin] | 1.78 | 0.69 | Weak Acid | 0.15 | 1.73 | 1.85 | hERG pIC50 (hERG channel): 3.71; CHI IAM [3]: 29.66 |
| O=c1[nH]c2ccccc2n1C1CCN(CCCC(c2ccc(F)cc2)c2ccc(F)cc2)CC1 [Pimozide] | 2.83 | 1.41 | Weak Base | 1.47 | 3.03 | 3.89 | hERG pIC50 (hERG channel): 6.43 |
| CCC(=O)c1ccccc1 [Propiophenone] |  |  |  |  |  |  | CHI at pH 2.6 ([2]; calibration set): 77.4; CHI at pH 7.4 ([2]; calibration set): 77.4; CHI at pH 10.5 ([2]; calibration set): 77.4; CHI IAM [1]: 25.9 |
| CCCOC(C(=O)OC1CCN(C)CC1)(c1ccccc1)c1ccccc1 [Propiverine] | 3.12 | 1.01 | Basic | 0.94 | 3.84 | 5.05 | hERG pIC50 (hERG channel; [8]): 5.22 |
| COc1ccc(CN(CCN(C)C)c2ccccn2)cc1 [Pyrilamine] | 2.56 | 0.44 | Basic | 0.49 | 1.72 | 3.32 | hERG pIC50 (hERG channel): 5.18; CHI IAM [3]: 46.62 |
| CC[C@H]1OC(=O)[C@H](C)[C@@H](O[C@H]2C[C@@](C)(OC)[C@@H](O)[C@H](C)O2)[C@H](C)[C@@H](O[C@@H]2O[C@H](C)C[C@H](N(C)C)[C@H]2O)[C@](C)(O)C[C@@H](C)/C(=N\OCOCCOC)[C@H](C)[C@@H](O)[C@]1(C)O [Roxithromycin] | 2.78 | -0.07 | Basic | 0.60 | 1.95 | 3.7 | hERG pIC50 (hERG channel; [8]): 4.44; CHI IAM [3]: 51.33 |
| CCOc1ccccc1OCCN[C@H](C)Cc1ccc(OC)c(S(N)(=O)=O)c1 [Tamsulosin] | 2.00 | 0.36 | Basic | 0.60 | 1.43 | 2.01 | hERG pIC50 (hERG channel; [8]): 4.89 |
| Cn1c(=O)c2[nH]cnc2n(C)c1=O [Theophylline] |  |  |  |  |  |  | CHI at pH 2.6 ([2]; calibration set): 17.9; CHI at pH 7.4 ([2]; calibration set): 18.4; CHI at pH 10.5 ([2]; calibration set): 5.0 |
| CCCCC(=O)c1ccccc1 [Valerophenone] |  |  |  |  |  |  | CHI at pH 2.6 ([2]; calibration set): 96.4; CHI at pH 7.4 ([2]; calibration set): 96.2; CHI at pH 10.5 ([2]; calibration set): 96.4; CHI IAM [1]: 37.3 |
| O=C1Cc2cc(CCN3CCN(c4nsc5ccccc45)CC3)c(Cl)cc2N1 [Ziprasidone] | 2.62 | 1.42 | Weak Base | 1.09 | 2.98 | 2.96 | hERG pIC50 (hERG channel): 6.44; CHI IAM [3]: 47.92 |
